From patent US20080015255A1, “Pharmaceutical Compositions Based on Fluorinated Sulphamides and Sulphinimides” (CENTRE NATIONAL DE LA RECHERCHE SCIENTIFIQUE(C.N.R.S.), priority 2004, published 2008)

Target: bovine carbonic anhydrase (Bos taurus, UniProt P00921)
Assay: Inhibition of bovine carbonic anhydrase esterase activity (hydrolysis of p-nitrophenyl acetate, UV 348 nm)
Conditions: for % inhibition of the hydrolysis of nitrophenyl acetate (NPA) catalyzed by carbonic anhydrase: 25° C.; for inhibition with respect to carboanhydrase, in words: comparable with or even superior to that of acetazolamide

Sequence of bovine carbonic anhydrase (P00921 whole entry): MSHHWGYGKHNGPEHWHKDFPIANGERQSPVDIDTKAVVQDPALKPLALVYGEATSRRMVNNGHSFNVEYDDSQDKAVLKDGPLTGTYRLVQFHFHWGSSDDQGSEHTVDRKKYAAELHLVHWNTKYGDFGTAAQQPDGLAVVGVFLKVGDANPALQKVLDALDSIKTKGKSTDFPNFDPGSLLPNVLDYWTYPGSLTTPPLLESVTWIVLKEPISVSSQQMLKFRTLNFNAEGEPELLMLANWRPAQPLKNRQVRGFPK

SMILES | % inhibition of the hydrolysis of nitrophenyl acetate (NPA) catalyzed by carbonic anhydrase (inhibitor 1.35 10^−4 mol/l) [%] | % inhibition of the hydrolysis of nitrophenyl acetate (NPA) catalyzed by carbonic anhydrase (inhibitor 1.35 10^−6 mol/l) [%] | inhibition with respect to carboanhydrase, in words | % inhibition of the hydrolysis of nitrophenyl acetate (NPA) catalyzed by carbonic anhydrase (inhibitor 1.35 10^−7 mol/l) [%] | % inhibition of the hydrolysis of nitrophenyl acetate (NPA) catalyzed by carbonic anhydrase (inhibitor 1.35 10^−8 mol/l) [%]
O=S(=O)(NS(=O)(=O)C(F)(F)C(F)(F)C(F)(F)C(F)(F)C(F)(F)C(F)(F)C(F)(F)C(F)(F)F)C(F)(F)C(F)(F)C(F)(F)C(F)(F)F [(C4F9SO2)NH(C8F17SO2)] | 97 | 0 |  |  | 
CCCCCCCCS(N)(=O)=O [Example C8H17SO2NH2, n-octanesulfamide, reference compound] | 86 | 5 |  |  | 
NS(=O)(=O)C(F)(F)C(F)(F)C(F)(F)C(F)(F)S(N)(=O)=O [(C2F4SO2NH2)2, perfluorobutane-1,4-disulfamide] |  | 78 | very considerable inhibition | 6 | 1
[Li+].[NH-]S(=O)(=O)C(F)(F)C(F)(F)C(F)(F)C(F)(F)C(F)(F)C(F)(F)C(F)(F)C(F)(F)F [C8F17SO2NH^−+Li] |  | 85 |  | 3 | 
O=S(=O)(NS(=O)(=O)C(F)(F)C(F)(F)C(F)(F)C(F)(F)C(F)(F)C(F)(F)F)C(F)(F)C(F)(F)C(F)(F)C(F)(F)F [(C6F13SO2)NH(C4F9SO2)] | 87 | 0 |  |  | 
NS(=O)(=O)C(F)(F)C(F)(F)C(F)(F)C(F)(F)C(F)(F)C(F)(F)C(F)(F)F [Example C7F15SO2NH2] |  | 80 |  | 0 | 
NS(=O)(=O)CCC(F)(F)C(F)(F)C(F)(F)C(F)(F)C(F)(F)C(F)(F)C(F)(F)C(F)(F)F [C8F17(CH2)2SO2NH2] |  | 36 |  |  | 
O=S(=O)(NS(=O)(=O)C(F)(F)C(F)(F)C(F)(F)C(F)(F)C(F)(F)C(F)(F)F)C(F)(F)C(F)(F)C(F)(F)C(F)(F)C(F)(F)C(F)(F)F [(C6F13SO2)2NH, bis(1,1,2,2,3,3,4,4,5,5,6,6,6)tridecafluoro-n-hexylsulfinimide] | 85 | 0 |  |  | 
[NH-]S(=O)(=O)C(F)(F)C(F)(F)C(F)(F)C(F)(F)C(F)(F)C(F)(F)C(F)(F)C(F)(F)F.[Na+] [C8F17SO2NH^−+Na, sodium 1,1,2,2,3,3,4,4,5,5,6,6,7,7,8,8,8-heptadecafluoro-n-octylsulfamide anion] |  | 94 | very considerable inhibition | 40 | 17
O=S(=O)(NS(=O)(=O)C(F)(F)C(F)(F)C(F)(F)C(F)(F)C(F)(F)C(F)(F)C(F)(F)C(F)(F)F)C(F)(F)C(F)(F)C(F)(F)C(F)(F)C(F)(F)C(F)(F)C(F)(F)C(F)(F)F [(C8F17SO2)2NH] | 89 | 0 |  |  | 
CCCCCCS(N)(=O)=O [Example C6H13SO2NH2, n-hexanesulfamide, reference compound] | 73 | 0 |  |  | 
O=S(=O)(NS(=O)(=O)C(F)(F)C(F)(F)C(F)(F)C(F)(F)C(F)(F)C(F)(F)C(F)(F)C(F)(F)F)C(F)(F)C(F)(F)C(F)(F)C(F)(F)C(F)(F)C(F)(F)F [(C8F17SO2)NH(C6F13SO2)] | 87 | 0 |  |  | 
O=S(=O)(NS(=O)(=O)C(F)(F)C(F)(F)C(F)(F)C(F)(F)F)C(F)(F)C(F)(F)C(F)(F)C(F)(F)F [(C4F9SO2)2NH] | 65 | 0 |  |  | 
NS(=O)(=O)C(F)(F)C(F)(F)C(F)(F)C(F)(F)C(F)(F)C(F)(F)C(F)(F)C(F)(F)F [Example C8F17SO2NH2, 1,1,2,2,3,3,4,4,5,5,6,6,7,7,8,8,8-heptadecafluoro-octanesulfamide] |  | 88 | very considerable inhibition | 7 | 5
